Experimental data: patent US8691804B2 (Evotec AG, priority 2008, dated 2014)

These compounds were tested against T1, human H3 receptors (Homo sapiens, UniProt Q9Y5N1) (assay: cAMP quantification assay for human H3 receptor testing). Conditions: CHO-K1 cells expressing human H3 receptors; inhibition of agonist-induced decrease of cAMP; 100 nM histamine, 10 μM forskolin; read-out: Potency range (IC50 values).
T1 construct: host or cells: CHO-K1
T1 sequence (Q9Y5N1 whole entry): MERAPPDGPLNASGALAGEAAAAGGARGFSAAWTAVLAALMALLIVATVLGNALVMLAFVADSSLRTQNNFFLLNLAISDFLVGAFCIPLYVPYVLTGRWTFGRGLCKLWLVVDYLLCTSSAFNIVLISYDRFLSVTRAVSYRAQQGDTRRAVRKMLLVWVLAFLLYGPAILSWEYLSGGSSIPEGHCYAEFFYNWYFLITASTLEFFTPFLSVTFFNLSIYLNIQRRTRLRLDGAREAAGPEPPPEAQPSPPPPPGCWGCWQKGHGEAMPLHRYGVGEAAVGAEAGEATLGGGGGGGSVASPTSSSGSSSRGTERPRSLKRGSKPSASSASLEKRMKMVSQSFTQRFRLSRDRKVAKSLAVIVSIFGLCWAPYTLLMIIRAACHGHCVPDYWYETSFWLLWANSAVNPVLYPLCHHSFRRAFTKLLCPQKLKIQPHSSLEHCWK
Assay type: cell-based
Experimental: CHO—K1 cell line expressing human H3 receptors were purchased from Euroscreen (Gosselies, Belgium, Cat. no.: ES-392-C)
Human H3 receptor-expressing cell-lines were grown in Ham's F12 [Sigma, Cat. no. N6658], supplemented with 10% FBS [Sigma, Cat. no. F9665], 400 μg/ml G418 [Sigma, Cat. no. N1876] and 250 μg/ml Zeocin [Invitrogen, Cat. no. 46-0509]) according to the protocol provided by Euroscreen.
The assay measures the ability of test compounds to inhibit Histamine receptor agonist-induced decrease of intracellular free cAMP (receptor is Gi coupled).
Specifically, a cAMP quantification assay system from DiscoveRx (cAMP XS+; Cat. no. 90-0075) was used.
For the cAMP assay, confluent cells were detached from the culture vessels with 1× trypsin-EDTA solution (Sigma), and seeded into 384-well Costar plates (white, clear bottom, Cat. no. 3707) at a density of 10,000 cells per well. Cells were seeded in a volume of 50 μl in medium without antibiotics and incubated overnight in a humidified atmosphere with 5% CO2 at 37° C. The cAMP assay was performed according to the protocol provided by DiscoveRx.
The cell culture medium was removed and the cells washed once with PBS (50 μl per well). The plates were emptied by inversion and 7.5 μl/well of compound in PBS (containing 1 mM IBMX and 0.03% BSA) were added and incubated for 30 min at 37° C.
Subsequent 7.5 μl/well specific agonist solution was added and the plates for another 30 min incubated at 37° C.
hH3:100 nM histamine, 10 μM forskolin in PBS (containing 1 mM IBMX and 0.03% BSA)
After the incubation with the agonist, 5 μl/well cAMP XS antibody solution was added followed by 20 μl/well Gal/EII/Lysis (1:5:19)+ED (1:1). The plates were incubated for one hour at room temperature and afterwards 20 μl/well EA reagent was added. The luminescence was developed for approximately three hours at room temperature and the plates were read out using a ‘BMG Novostar’ plate reader.
Test compounds were assayed at 8 concentrations in triplicate. Serial 10-fold dilutions in 100% DMSO were made at a 100-times higher concentration than the final concentration and then diluted with a 2 step protocol in assay buffer to reach the required assay concentrations and 1% DMSO. […]
`CNC(=O)c1cccc(OC2CN(C(=O)N3CCCN(C4CCC4)CC3)C2)c1` [Example 75, 3-({1-[(4-cyclobutyl-1,4-diazepan-1-yl)carbonyl]azetidin-3-yl}oxy)-N-methylbenzamide] was tested, and the IC50 was < 100 nM.
For `O=C(N1CCCN(C2CCC2)CC1)N1CC(Oc2ccccc2)C1` [Example 15, 1-cyclobutyl-4-[(3-phenoxyazetidin-1-yl)carbonyl]-1,4-diazepane], the IC50 was < 100 nM.
In the case of `CNC(=O)c1cnccc1OC1CN(C(=O)N2CCCN(C3CCC3)CC2)C1` [Example 85, 4-({1-[(4-cyclobutyl-1,4-diazepan-1-yl)carbonyl]azetidin-3-yl}oxy)-N-methylpyridine-3-carboxamide], the IC50 is reported as < 100 nM.
For `O=C(C1CN(C(=O)N2CCCN(C3CCC3)CC2)C1)N1CCC(F)CC1` [Example 129, 1-cyclobutyl-4-({3-[(4-fluoropiperidin-1-yl)carbonyl]azetidin-1-yl}carbonyl)-1,4-diazepane], the IC50 was < 100 nM.
With `O=C([C@H]1C[C@@H](Oc2ccc(C(F)(F)F)cn2)C1)N1CCCN(C2CCC2)CC1` [Example 104, 1-cyclobutyl-4-[(cis-3-{[5-(trifluoromethyl)pyridin-2-yl]oxy}cyclobutyl)carbonyl]-1,4-diazepane] the IC50 was < 100 nM.
For `O=C(N1CCN(C2CCC2)CC1)N1CC(Oc2ccc(F)cc2)C1` [Example 41, 1-cyclobutyl-4-{[3-(4-fluorophenoxy)azetidin-1-yl]carbonyl}piperazine], the IC50 was < 100 nM.
`COc1cccc(OC2CN(C(=O)N3CCCN(C4CCC4)CC3)C2)c1` [Example 91, 1-cyclobutyl-4-{[3-(3-methoxyphenoxy)azetidin-1-yl]carbonyl}-1,4-diazepane] was tested, and the IC50 was < 100 nM.
With `Cc1ccc(C(=O)N(C)C2CN(C(=O)N3CCCN(C4CCC4)CC3)C2)cn1` [Example 143, N-{1-[(4-cyclobutyl-1,4-diazepan-1-yl)carbonyl]azetidin-3-yl}-N,6-dimethylpyridine-3-carboxamide] the IC50 was < 100 nM.
For `N#Cc1ccc(OC2CN(C(=O)N3CCCN(C4CCC4)CC3)C2)cc1` [Example 12, 4-({1-[(4-cyclobutyl-1,4-diazepan-1-yl)carbonyl]azetidin-3-yl}oxy)benzonitrile], the IC50 was < 100 nM.
With `O=C(N1CCN(C2CCC2)CC1)N1CC(Oc2ccccc2)C1` [Example 38, 1-cyclobutyl-4-[(3-phenoxyazetidin-1-yl)carbonyl]piperazine] the IC50 was < 100 nM.
In the case of `O=C([C@H]1C[C@H](Oc2ccc(C(F)(F)F)cn2)C1)N1CCCN(C2CCC2)CC1` [Example 107, 1-cyclobutyl-4-[(trans-3-{[5-(trifluoromethyl)pyridin-2-yl]oxy}cyclobutyl)carbonyl]-1,4-diazepane], the IC50 is reported as < 100 nM.
`O=C(N1CCCN(C2CCC2)CC1)N1CC(Oc2cccc(C(F)(F)F)c2)C1` [Example 28, 1-cyclobutyl-4-({3-[3-(trifluoromethyl)phenoxy]azetidin-1-yl}carbonyl)-1,4-diazepane] was tested, and the IC50 was < 100 nM.
With `O=C(N1CCCN(C2CCC2)CC1)N1CC(Oc2ccc(Cl)cc2)C1` [Example 14, 1-{[3-(4-chlorophenoxy)azetidin-1-yl]carbonyl}-4-cyclobutyl-1,4-diazepane] the IC50 was < 100 nM.
For `O=C(N1CCCN(C2CCC2)CC1)N1CC(CO)C1` [Example 134, {1-[(4-cyclobutyl-1,4-diazepan-1-yl)carbonyl]azetidin-3-yl}methanol], the IC50 was < 100 nM.
`O=C(N1CCCN(C2CCC2)CC1)N1CC(Oc2ccccc2C(F)(F)F)C1` [Example 29, 1-cyclobutyl-4-({3-[2-(trifluoromethyl)phenoxy]azetidin-1-yl}carbonyl)-1,4-diazepane] was tested, and the IC50 was < 100 nM.
In the case of `O=C(C1CN(C(=O)N2CCCN(C3CCC3)CC2)C1)N1CCC1` [Example 126, 1-{[3-(azetidin-1-ylcarbonyl)azetidin-1-yl]carbonyl}-4-cyclobutyl-1,4-diazepane], the IC50 is reported as < 100 nM.
`CNC(=O)c1ccc(OC2CN(C(=O)N3CCCN(C4CCC4)CC3)C2)nc1` [Example 3, 6-({1-[(4-cyclobutyl-1,4-diazepan-1-yl)carbonyl]azetidin-3-yl}oxy)-N-methylpyridine-3-carboxamide] was tested, and the IC50 was < 100 nM.
`O=C(N1CCCN(C2CCC2)CC1)N1CC(Oc2ccc(Cn3cccn3)cc2)C1` [Example 16, 1-cyclobutyl-4-({3-[4-(1H-pyrazol-1-ylmethyl)phenoxy]azetidin-1-yl}carbonyl)-1,4-diazepane] was tested, and the IC50 was < 100 nM.
For `O=C(NC1CN(C(=O)N2CCCN(C3CCC3)CC2)C1)c1ccc(Cl)cc1` [Example 140, 4-chloro-N-{1-[(4-cyclobutyl-1,4-diazepan-1-yl)carbonyl]azetidin-3-yl}benzamide], the IC50 was < 100 nM.
In the case of `CC(C)(CO)c1ccc(OC2CN(C(=O)N3CCCN(C4CCC4)CC3)C2)cn1` [Example 156, 2-[5-({1-[(4-cyclobutyl-1,4-diazepan-1-yl)carbonyl]azetidin-3-yl}oxy)pyridin-2-yl]-2-methylpropan-1-ol], the IC50 is reported as < 100 nM.
For `Cc1cc(OC2CN(C(=O)N3CCCN(C4CCC4)CC3)C2)cc(C)n1` [Example 69, 1-cyclobutyl-4-({3-[(2,6-dimethylpyridin-4-yl)oxy]azetidin-1-yl}carbonyl)-1,4-diazepane], the IC50 was < 100 nM.
In the case of `O=C(N1CCCN(C2CCC2)CC1)N1CC(Oc2ccc(Cl)cn2)C1` [Example 77, 1-({3-[(5-chloropyridin-2-yl)oxy]azetidin-1-yl}carbonyl)-4-cyclobutyl-1,4-diazepane], the IC50 is reported as < 100 nM.
In the case of `CNC(=O)c1cc(OC2CN(C(=O)N3CCCN(C4CCC4)CC3)C2)ccn1` [Example 147, 4-({1-[(4-cyclobutyl-1,4-diazepan-1-yl)carbonyl]azetidin-3-yl}oxy)-N-methylpyridine-2-carboxamide], the IC50 is reported as < 100 nM.
`O=C(N1CCCN(C2CCC2)CC1)N1CC(Oc2ccc(N3CCCC3=O)cc2)C1` [Example 18, 1-[4-({1-[(4-cyclobutyl-1,4-diazepan-1-yl)carbonyl]azetidin-3-yl}oxy)phenyl]pyrrolidin-2-one] was tested, and the IC50 was < 100 nM.
With `O=C(N1CCCN(C2CCC2)CC1)N1CC(Oc2ncccc2Cl)C1` [Example 76] the IC50 was < 100 nM.
In the case of `O=C([C@H]1C[C@H](O)C1)N1CCCN(C2CCC2)CC1` [Example 105, trans-3-[(4-cyclobutyl-1,4-diazepan-1-yl)carbonyl]cyclobutanol], the IC50 is reported as < 100 nM.
For `O=C(N1CCCN(C2CCC2)CC1)N1CC(Oc2ccc(C(F)(F)F)nc2)C1` [Example 94, 1-cyclobutyl-4-[(3-{[6-(trifluoromethyl)pyridin-3-yl]oxy}azetidin-1-yl)carbonyl]-1,4-diazepane], the IC50 was < 100 nM.
Work on `CNC(=O)c1ccc(OC2CN(C(=O)N3CCCN(C)CC3)C2)cn1` [Example 113, 5-({1-[(4-methyl-1,4-diazepan-1-yl)carbonyl]azetidin-3-yl}oxy)-N-methylpyridine-2-carboxamide] yielded an IC50 of 500 to 5000 nM.
For `O=C(Nc1ccc(Cl)cc1)C1CN(C(=O)N2CCCN(C3CCC3)CC2)C1` [Example 123, N-(4-chlorophenyl)-1-[(4-cyclobutyl-1,4-diazepan-1-yl)carbonyl]azetidine-3-carboxamide], the IC50 was < 100 nM.
`O=C(C1CN(C(=O)N2CCCN(C3CCC3)CC2)C1)N1CCCCC1` [Example 124, 1-cyclobutyl-4-{[3-(piperidin-1-ylcarbonyl)azetidin-1-yl]carbonyl}-1,4-diazepane] was tested, and the IC50 was < 100 nM.
In the case of `O=C(N1CCCN(C2CCC2)CC1)N1CC(Oc2ccc(-n3ccnc3)cc2)C1` [Example 26, 1-cyclobutyl-4-({3-[4-(1H-imidazol-1-yl)phenoxy]azetidin-1-yl}carbonyl)-1,4-diazepane], the IC50 is reported as < 100 nM.
For `Cc1ccc(OC2CN(C(=O)N3CCCN(C4CCC4)CC3)C2)nn1` [Example 59, 1-cyclobutyl-4-({3-[(6-methylpyridazin-3-yl)oxy]azetidin-1-yl}carbonyl)-1,4-diazepane], the IC50 was < 100 nM.
With `CC(C)c1cc(OC2CN(C(=O)N3CCCN(C4CCC4)CC3)C2)ccn1` [Example 55, 1-cyclobutyl-4-[(3-{[2-(1-methylethyl)pyridin-4-yl]oxy}azetidin-1-yl)carbonyl]-1,4-diazepane] the IC50 was < 100 nM.
`O=C(N1CCCN(C2CCC2)CC1)N1CC(Oc2ccc(CN3CCC(F)(F)CC3)cc2)C1` [Example 21, 1-cyclobutyl-4-[(3-{4-[(4,4-difluoropiperidin-1-yl)methyl]phenoxy}azetidin-1-yl)carbonyl]-1,4-diazepane] was tested, and the IC50 was < 100 nM.
With `O=C(N1CCCN(C2CCC2)CC1)N1CC(Oc2ccc(-n3cccn3)cc2)C1` [Example 87, 1-cyclobutyl-4-({3-[4-(1H-pyrazol-1-yl)phenoxy]azetidin-1-yl}carbonyl)-1,4-diazepane] the IC50 was < 100 nM.
